Structures are written as SMILES.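 In this assay, cells in 96-well plates receive the compound at five concentrations for 48 hours. Endpoints are linearly interpolated between the surrounding concentrations. Here, GI50 denotes the concentration required for 50% inhibition of growth.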 Active and inactive are the calls of the source. No stated cut-off is given here; in the data, active = GI50 up to about 1.1 µM and inactive = higher.

Some test systems named below: IGROV-1; 786-0; HCT-116; RPMI-8226; OVCAR-4; EKVX; SK-MEL-28; SK-OV-3; M14; RXF 393; CCRF-CEM; NCI/ADR-RES; PC-3; NCI-H522; HL-60; SNB-75; OVCAR-8; NCI-H460; U-251; COLO 205.
Holding throughout (assay): growth of human tumour cells (NCI), 48 h

Take `NC(=O)c1ccc(N)nc1` [6-AMINONICOTINAMIDE]: the GI50 is 108 µM (inactive) in the assay with IGROV-1; 3.54 µM (inactive) in the assay on 786-0; > 187 µM (inactive) in the assay with HCT-116; 9.75 µM (inactive) with RPMI-8226; 7.01 µM (inactive) with OVCAR-4; 21.7 µM (inactive) with EKVX. In addition, the GI50 is 3.37 µM (inactive) in the assay with SK-MEL-28; > 400 µM (inactive) with SK-OV-3; 6.24 µM (inactive) with M14; 0.138 µM (active) in the assay with RXF 393; 12.3 µM (inactive) in the assay with CCRF-CEM; > 245 µM (inactive) in the assay with NCI/ADR-RES. The GI50 in the assay with PC-3 was 29.7 µM (inactive); in the assay with NCI-H522, 99.8 µM (inactive); in the assay with HL-60, 53.3 µM (inactive); in the assay on SNB-75, 15.6 µM (inactive); in the assay with OVCAR-8, 17.6 µM (inactive); in the assay on NCI-H460, 5.16 µM (inactive). The values for the GI50 in the assay on U-251 and in the assay with COLO 205 were 1.85 µM (inactive) and 14.2 µM (inactive), respectively.
Regarding `CC(=O)OC(C)(C)/C=C/C(=O)[C@](C)(O)[C@H]1[C@H](O)C[C@@]2(C)[C@@H]3CC=C4[C@@H](C=C(O)C(=O)C4(C)C)[C@]3(C)C(=O)C[C@]12C` [CUCURBITACIN E], the GI50 in the assay with IGROV-1 was 0.0366 µM (active); with 786-0, 0.0339 µM (active); in the assay on HCT-116 it was 0.034 µM (active); with RPMI-8226 it was 0.041 µM (active); in the assay with OVCAR-4, 0.0305 µM (active); in the assay on EKVX, 0.118 µM (active). Besides, the GI50 was 0.024 µM (active) in the assay on SK-MEL-28; 0.0436 µM (active) in the assay with SK-OV-3; 0.0375 µM (active) in the assay on M14; 0.0177 µM (active) in the assay with RXF 393; 0.0298 µM (active) in the assay on CCRF-CEM; 0.129 µM (active) in the assay on NCI/ADR-RES. Moreover, the GI50 is 0.259 µM (active) in the assay with PC-3; 0.0407 µM (active) in the assay with NCI-H522; 0.0313 µM (active) with HL-60; 0.0187 µM (active) in the assay with SNB-75; 0.166 µM (active) in the assay on OVCAR-8; 0.0222 µM (active) in the assay with NCI-H460. Besides, the GI50 was 0.0203 µM (active) in the assay with U-251 and 0.0191 µM (active) in the assay on COLO 205.
For the molecule `O=P(O)(NCCCl)NCCCl` [PALIFOSFAMIDE], the GI50 in the assay with IGROV-1 was > 100 µM (inactive); in the assay with 786-0, > 67.8 µM (inactive); with HCT-116, > 100 µM (inactive); in the assay on RPMI-8226, > 89.5 µM (inactive); with OVCAR-4 it was > 100 µM (inactive); with EKVX, > 10 µM (inactive). In addition, the GI50 in the assay with SK-MEL-28 was > 100 µM (inactive); with SK-OV-3, > 55.8 µM (inactive); with M14, > 100 µM (inactive); in the assay on RXF 393 it was > 10 µM (inactive); in the assay with CCRF-CEM it was 47.5 µM (inactive); in the assay with NCI/ADR-RES, > 100 µM (inactive). Moreover, the GI50 in the assay with PC-3 was > 100 µM (inactive); with NCI-H522 it was > 100 µM (inactive); in the assay on HL-60 it was > 51.3 µM (inactive); in the assay on SNB-75, > 65.6 µM (inactive); in the assay on OVCAR-8 it was > 10 µM (inactive); in the assay on NCI-H460, 28.8 µM (inactive). The GI50 in the assay on U-251 is > 10 µM (inactive); in the assay with COLO 205, > 100 µM (inactive).

For the origin of these results see ChEMBL document CHEMBL1201862, “PubChem BioAssay data set” (2004).
